Test results reported in article PMC5622368, “Redundancy between nucleases required for homologous recombination promotes PARP inhibitor resistance in the eukaryotic model organism Dictyostelium” (Nucleic Acids Research, 2017).

Biological target: T1, Adprt2 (Dictyostelium discoideum, UniProt Q8I7C6)
T1 construct: recombinant His-tagged, expressed and purified from bacteria
T1 sequence (Q8I7C6 1-700): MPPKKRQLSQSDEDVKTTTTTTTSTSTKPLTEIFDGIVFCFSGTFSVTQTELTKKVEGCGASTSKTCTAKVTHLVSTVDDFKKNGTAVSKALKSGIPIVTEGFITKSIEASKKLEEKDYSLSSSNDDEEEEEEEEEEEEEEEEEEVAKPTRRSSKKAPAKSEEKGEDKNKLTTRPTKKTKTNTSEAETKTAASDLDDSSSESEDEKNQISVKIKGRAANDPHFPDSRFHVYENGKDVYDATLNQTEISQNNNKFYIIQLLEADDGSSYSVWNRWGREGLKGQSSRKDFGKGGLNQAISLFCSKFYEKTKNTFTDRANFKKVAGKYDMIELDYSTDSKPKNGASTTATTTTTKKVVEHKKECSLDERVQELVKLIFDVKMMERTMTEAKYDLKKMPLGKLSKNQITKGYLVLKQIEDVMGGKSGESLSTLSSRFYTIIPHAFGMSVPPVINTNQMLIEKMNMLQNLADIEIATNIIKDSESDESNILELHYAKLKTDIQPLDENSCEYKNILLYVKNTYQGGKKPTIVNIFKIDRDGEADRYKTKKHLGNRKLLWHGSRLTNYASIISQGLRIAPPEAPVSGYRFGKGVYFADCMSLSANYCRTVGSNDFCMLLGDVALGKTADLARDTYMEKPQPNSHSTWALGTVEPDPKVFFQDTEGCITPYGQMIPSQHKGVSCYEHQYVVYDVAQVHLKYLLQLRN
Assay: auto-ADP-ribosylation, […]-NAD+, SDS-PAGE and phosphorimager
Format: biochemical
Settings: room temperature

[1] = 75 uM NAD+, 100 nM 32P-NAD+, 1 uM enzyme, Tris-HCl pH 8, 2 mM MgCl2, sheared salmon sperm DNA, 30 min

Row | SMILES | auto-ADP-ribosylation, 32P-NAD+, SDS-PAGE and phosphorimager [1] | auto-ADP-ribosylation, 32P-NAD+, SDS-PAGE and phosphorimager (75 uM NAD+ plus 100 nM 32P-NAD+ (labelled compound), pH 8, 2 mM MgCl2, sheared salmon sperm DNA)
1 | Cc1nc2c(O)cccc2c(=O)[nH]1 [NU1025] | these agents inhibit auto-ribosylation of the SSB-responsive ART Adprt2 | –
2 | CNCc1ccc(-c2[nH]c3cc(F)cc4c3c2CCNC4=O)cc1 [rucaparib] | olaparib and rucaparib are more effective at inhibiting Adprt1a than Adprt2 | –
3 | NC(=O)c1ccc[n+]([C@@H]2O[C@H](COP(=O)(O)OP(=O)(O)OC[C@H]3O[C@@H](n4cnc5c(N)ncnc54)[C@H](O)[C@@H]3O)[C@@H](O)[C@H]2O)c1 [NAD+] | – | ADP-ribosylated species that co-migrates with recombinant Adprt1a or Adprt2 in our assays
4 | O=C(c1cc(Cc2n[nH]c(=O)c3ccccc23)ccc1F)N1CCN(C(=O)C2CC2)CC1 [olaparib] | olaparib and rucaparib are more effective at inhibiting Adprt1a than Adprt2 | –
